# Reference: patent publication US8022055B2, “Betulinic acid derivatives” (Dabur Pharma Limited, priority 2005, dated 2011)
# Read-outs that look alike come from different tables or passages of the source.
# Columns and labels:
# SW620 = assay: three day MTT cytotoxicity assay, SW620; format: cell-based, human; settings: for IC50: Homo sapiens, SW-620, SW620, 72 hours, read-out: IC50 for cell lines SW620; for IC50 for cell lines SW620: SW620, 72 hours
# Procedure: (§1) Briefly, a three day MTT cytotoxicity assay was performed, which is based on the principle of uptake of MTT (3-(4,5-dimethylthiazol-2-yl)-2,5-diphenyl tetrazolium bromide), a tetrazolium salt, by the metabolically active cells where it is metabolized by active mitochondria into a blue colored formazan product that is read spectrophotometrically. MIT was dissolved in phosphate buffered saline with a pH of 7.4 to obtain an MIT concentration of 5 mg/ml; the resulting mixture was filtered through a 0.22-micron filter to sterilize and remove a small amount of insoluble residue. For each type of tumor cell, 10,000 to 15,000 cells were seeded in a 96-well culture plate and incubated with the individual betulinic acid derivatives in a CO2 incubator for a total of 72 hours. Control cells not treated with the betulinic acid derivatives were similarly incubated. The assay was terminated by adding 100 μg (20 μl) of MIT to each well then incubating for additional one hour, and finally adding 50 μl of 10% SDS-0.01N HCl to each well to lyse the cells and dissolve formazan. After incubating for one hour, the plate was read spectrophotometrically at 540 nm and the percentage of cytotoxicity calculated using the following formula: Cytotoxicity percentage=100×[1−(X/R1)], where X=(absorbance of treated sample at 540 nm)−(absorbance of blank at 540 nm) R1=absorbance of control sample at 540 nm. The IC50 Values of the cytotoxicity defined as the concentration at which 50% of the cells are killed in vitro was calculated for each cell line treated with each of the betulinic acid derivatives.
# [1] = rat, in vivo, iv, 10 mg/kg
# Procedure: (§2) Blood samples were taken at various times after administration and plasma was prepared and frozen at −20° C. until analysis. The plasma sample were analyzed by a suitable HPLC method using a C-18 column. The pH of water is adjusted to 3.0 with phosphoric acid. Start the gradient with 70% acetonitrile for 5 minutes and increase the concentration up to 100% within 25 minutes followed by hold at 100% for 10 minutes. It is thus possible to construct the curve showing the plasma concentration as a function of time and to determine different pharmacokinetic parameter of compound studied.
# Miapaca = assay: three day MTT cytotoxicity assay, Miapaca; format: cell-based, human; settings: for IC50: Homo sapiens, MIA PaCa-2, read-out: IC50 for cell lines Miapaca; for IC50 / IC50 for cell lines Miapaca: Miapaca, 72 hours, MTT; for Specific Index (SI) for cell lines Miapaca: ratio of IC50 of NIH 3T3 cells to Miapaca
# Procedure: (§3) A number of compounds listed in Table-3 were tested for cytotoxicity against prostate, lung, laryngeal, pancreas, breast, colon and ovarian cancer, leukemia and lymphoma, human tumor cell lines. Briefly, a three day MTT cytotoxicity assay was performed, which is based on the principle of uptake of MTT (3-(4,5-dimethylthiazol-2-yl)-2,5-diphenyl tetrazolium bromide), a tetrazolium salt, by the metabolically active cells where it is metabolized by active mitochondria into a blue colored formazan product that is read spectrophotometrically. MIT was dissolved in phosphate buffered saline with a pH of 7.4 to obtain an MIT concentration of 5 mg/ml; the resulting mixture was filtered through a 0.22-micron filter to sterilize and remove a small amount of insoluble residue. For each type of tumor cell, 10,000 to 15,000 cells were seeded in a 96-well culture plate and incubated with the individual betulinic acid derivatives in a CO2 incubator for a total of 72 hours. Control cells not treated with the betulinic acid derivatives were similarly incubated. The assay was terminated by adding 100 μg (20 μl) of MIT to each well then incubating for additional one hour, and finally adding 50 μl of 10% SDS-0.01N HCl to each well to lyse the cells and dissolve formazan. After incubating for one hour, the plate was read spectrophotometrically at 540 nm and the percentage of cytotoxicity calculated using the following formula: Cytotoxicity percentage=100×[1−(X/R1)], where X=(absorbance of treated sample at 540 nm)−(absorbance of blank at 540 nm) R1=absorbance of control sample at 540 nm. The IC50 Values of the cytotoxicity defined as the concentration at which 50% of the cells are killed in vitro was calculated for each cell line treated with each of the betulinic acid derivatives.
# HBL100 = assay: three day MTT cytotoxicity assay, HBL100; format: cell-based, human; settings: for IC50: Homo sapiens, HBL-100, read-out: IC50 for cell lines HBL100; for IC50 / IC50 for cell lines HBL100: HBL100, 72 hours, MTT; for Specific Index (SI) for cell lines HBL100: ratio of IC50 of NIH 3T3 cells to HBL100
# Procedure: as §3
# A549 = assay: three day MTT cytotoxicity assay, A549; format: cell-based, human; settings: for IC50: Homo sapiens, read-out: IC50 for cell lines A549; for IC50 / IC50 for cell lines A549: A549, 72 hours, MTT; for Specific Index (SI) for cell lines A549: ratio of IC50 of NIH 3T3 cells to A549
# Procedure: as §3
# PA1 = assay: three day MTT cytotoxicity assay, PA1; format: cell-based, human; settings: for IC50: Homo sapiens, PA-1, PA1, 72 hours, read-out: IC50 for cell lines PA1; for IC50 for cell lines PA1: PA1, 72 hours
# Procedure: as §1
# DU145 = assay: three day MTT cytotoxicity assay, DU145; format: cell-based, human; settings: for IC50: Homo sapiens, DU-145, DU145, 72 hours, read-out: IC50 for cell lines DU145; for IC50 for cell lines DU145: DU145, 72 hours
# Procedure: as §3
# in vivo = settings: male, Wistar, rat, iv, 10 mg/kg
# Procedure: as §2
# [2] = system: various cancer cell lines
# tumor = settings: murine xenograft models; cited from earlier work
# K562 = assay: three day MTT cytotoxicity assay, K562; format: cell-based, human; settings: for IC50 for cell lines K562: K562, 72 hours, MTT; for Specific Index (SI) for cell lines K562: ratio of IC50 of NIH 3T3 cells to K562
# Procedure: as §3
# NIH 3T3 cells = assay: NIH3T3 cytotoxicity test (72 h MTT assay); format: cell-based; settings: NIH3T3, 72 hours
# Procedure: The cytotoxic effect of chemicals upon NIH 3T3 cells in culture is measured by cell metabolism determination using the previously described MIT assay. Healthy NIH 3T3 cells (an established cell-line), when maintained in culture continuously divide and multiply over time. The basis of this test is that a cytotoxic chemical (regardless of site or mechanism of action) will interfere with this process and, thus, result in a reduction of the growth rate as reflected by cell number. The degree of inhibition of growth, related to the concentration of the test compound, provides an indication of toxicity.
# The NIH 3T3 cells are maintained in culture and exposed to test compounds over a range of concentrations and the number of viable cells determined after 72 hours exposure by MIT assay. The number of cells in the presence of test chemicals are compared to that observed in control cultures and the percent inhibition of growth calculated. The IC50 concentration (i.e. the concentration producing 50% inhibition of growth) is determined and expressed as μg/ml. A ratio of IC50 of NIH 3T3 cells to tumor cells is an indicator of predicted toxicity of the molecule and is represented as “Safety Index”. The higher the value, the better is the predicted safety of the molecule.
# [3] = Pharmacokinetic study after intravenous injection; settings: rat
# Procedure: as §2
# [4] = system: various cancer cell lines; assay: in vitro cytotoxicity / anticancer activity, overall statement
# normal cells = settings: literature study; cited from earlier work
# [5] = male, Wistar, plasma, iv, 10 mg/kg
Compound,IC50 for cell lines K562 (K562),Specific Index (SI) for cell lines K562 (K562),IC50 for cell lines SW620 (SW620),IC50 for cell lines Miapaca (Miapaca),Specific Index (SI) for cell lines Miapaca (Miapaca),IC50 for cell lines HBL100 (HBL100),Specific Index (SI) for cell lines HBL100 (HBL100),IC50 for cell lines A549 (A549),Specific Index (SI) for cell lines A549 (A549),IC50 for cell lines PA1 (PA1),IC50 for cell lines DU145 (DU145),IC50 for cell lines NIH3T3 (NIH 3T3 cells),also measured
CC(C)[C@@H]1CC[C@]2(C(=O)O)CC[C@]3(C)C(CCC4[C@@]5(C)CC/C(=N/Oc6ccc([N+](=O)[O-])cc6)C(C)(C)C5CC[C@]43C)C12 (some centres unmarked) [MJ1098-RS (III)],–,–,–,–,–,–,–,–,–,–,–,–,IC50 (SW620): 3.4 µg/mL; elimination (Kel) as compared to betulinic acid [1]: slower elimination; plasma concentrations as compared to betulinic acid (II) [1]: quite high and long lasting; systemic exposure (AUC0-∞) as compared to betulinic acid [1]: better systemic exposure; IC50 (Miapaca): 3.17 µg/mL; IC50 (HBL100): 2.82 µg/mL; IC50 (A549): 1.18 µg/mL; IC50 (PA1): 3.63 µg/mL; IC50 (DU145): 0.82 µg/mL; AUC (in vivo): 43600 ng·h/mL; C0 (in vivo): 101 µg/mL; Vd (in vivo): 0.0006 L; half-life (in vivo): 9.9 h; in vitro cytotoxicity / anticancer activity (in words) [2]: good in vitro cytotoxicity; tumor reduction (tumor): shows tumor reduction
"C=C(C)[C@@H]1CC[C@]2(C(=O)O)CC[C@]3(C)C(CCC4[C@@]5(C)Cc6c([nH]c7ccc(Cl)cc67)C(C)(C)C5CC[C@]43C)C12 (some centres unmarked) [Compound 5, 5′-Chloro-2,3-didehydroindolo[2′,′:2,3]betulinic acid]",9.61 ± 0.78 µg/mL,0.478,2.7 µg/mL,2.44 ± 0.26 µg/mL,1.885,11.75 ± 1.65 µg/mL,0.391,7.14 ± 0.5 µg/mL,0.644,2.5 µg/mL,4.9 µg/mL,4.6 ± 0.14 µg/mL,"elimination (Kel) as compared to betulinic acid ([3]; 10 mg/kg intravenous): slower elimination; pharmacokinetic properties (in words) ([3]; 10 mg/kg intravenous): significantly superior pharmacokinetic properties over betulinic acid; plasma concentrations as compared to betulinic acid (II) ([3]; 10 mg/kg intravenous): quite high and long lasting; systemic exposure (AUC0-∞) as compared to betulinic acid ([3]; 10 mg/kg intravenous): better systemic exposure; AUC(0-e) ([3]; 10 mg/kg intravenous, plasma): 78400 ng·h/mL; C0 ([3]; 10 mg/kg intravenous, plasma): 132.2 µg/mL; T1/2 ([3]; 10 mg/kg intravenous, plasma): 6.7 h; Vd ([3]; 10 mg/kg intravenous, plasma): 0.23 mL; in vitro cytotoxicity / anticancer activity (in words) [4]: significantly improved anticancer activity over betulinic acid"
"C=C(C)[C@@H]1CC[C@]2(C(=O)Nc3nccs3)CC[C@]3(C)C(CCC4[C@@]5(C)Cc6c([nH]c7ccc(Cl)cc67)C(C)(C)C5CC[C@]43C)C12 (some centres unmarked) [Compound 26, 28-N-(2″-thiazole)-5′-chloro-2,3-didehydroindolo[2′,′:2,3]betulinamide]",>20 µg/mL,–,>20 µg/mL,>20 µg/mL,–,>20 µg/mL,–,>20 µg/mL,–,>20 µg/mL,>20 µg/mL,>20 µg/mL,–
"C=C(C)[C@@H]1CC[C@]2(C(=O)O)CC[C@]3(C)[C@H](CC[C@@H]4[C@@]5(C)Cc6c([nH]c7c(Cl)cccc67)C(C)(C)[C@@H]5CC[C@]43C)[C@@H]12 [Compound 9, 7′-Chloro-2,3-didehydroindolo[2′,′:2,3]betulinic acid]",9.26 ± 1.6 µg/mL,1.274,2.008 µg/mL,11.6 ± 0.49 µg/mL,1.017,11.8 ± 0.35 µg/mL,1,8.7 ± 0.19 µg/mL,1.356,6.39 µg/mL,11.66 µg/mL,11.8 ± 0.19 µg/mL,–
"C=C(C)[C@@H]1CC[C@]2(C(=O)O)CC[C@]3(C)C(CCC4[C@@]5(C)Cc6c(oc7ccccc67)C(C)(C)C5CC[C@]43C)C12 (some centres unmarked) [Compound 11, 2,3-Didehydrobenzfurano[2′,3′:2,3]betulinic acid]",>20 µg/mL,<0.952,>20 µg/mL,>20 µg/mL,<0.952,>20 µg/mL,<0.952,>20 µg/mL,<0.952,>20 µg/mL,>20 µg/mL,19.03 ± 0.79 µg/mL,–
"C=C(C)[C@@H]1CC[C@]2(C(=O)O)CC[C@]3(C)[C@H](CC[C@@H]4[C@@]5(C)CC[C@H](O)C(C)(C)[C@@H]5CC[C@]43C)[C@@H]12 [Betulinic Acid (II), 33-hydroxy-lup-20(29)-en-28-oic acid, reference compound]",–,–,–,–,–,–,–,–,–,–,–,–,"IC50 (SW620): 13.3 µg/mL; IC50 (Miapaca): > 20 µg/mL; toxicity against normal cells (normal cells): minimal toxicity against normal cells; IC50 (HBL100): 5.02 µg/mL; IC50 (A549): 3.01 µg/mL; IC50 (PA1): 11.5 µg/mL; IC50 (DU145): > 20 µg/mL; AUC [3, 5]: 13900 ng·h/mL; AUC(0-t) [3, 5]: 10600 ng·h/mL; C0 [3, 5]: 36 µg/mL; Vd [3, 5]: 41.6 mL; half-life [3, 5]: 0.265 h; Kel ([3]; 10 mg/kg intravenous, plasma): 2.60 h⁻¹"
"C=C(C)[C@@H]1CC[C@]2(C(=O)NCC(=O)O)CC[C@]3(C)C(CCC4[C@@]5(C)Cc6c([nH]c7ccc(Cl)cc67)C(C)(C)C5CC[C@]43C)C12 (some centres unmarked) [Compound 24, 28-N-Glycine-5′-chloro-2,3-didehydroindolo[2′,3′:2,3]betulinamide]",>20 µg/mL,<0.56,10.42 µg/mL,10.7 ± 0.63 µg/mL,1.047,16.5 ± 0.6 µg/mL,0.679,12.4 ± 1.78 µg/mL,0.903,6.66 µg/mL,10.32 µg/mL,11.2 ± 0.63 µg/mL,–
"C#CCNC(=O)[C@]12CC[C@@H](C(=C)C)C1C1CCC3[C@@]4(C)Cc5c([nH]c6ccc(Cl)cc56)C(C)(C)C4CC[C@@]3(C)[C@]1(C)CC2 (some centres unmarked) [Compound 27, 28-N-Propargyl-5′-chloro-2,3-didehydroindolo[2′,′:2,3]betulinamide]",>20 µg/mL,–,>20 µg/mL,>20 µg/mL,–,>20 µg/mL,–,>20 µg/mL,–,>20 µg/mL,>20 µg/mL,>20 µg/mL,–
